Measured values as given in ChEMBL document CHEMBL5729548, “ACLY inhibitors and uses thereof” (2023).

Molecular target: T1, ATP-citrate synthase (Homo sapiens, UniProt P53396)
T1 sequence (P53396 whole entry): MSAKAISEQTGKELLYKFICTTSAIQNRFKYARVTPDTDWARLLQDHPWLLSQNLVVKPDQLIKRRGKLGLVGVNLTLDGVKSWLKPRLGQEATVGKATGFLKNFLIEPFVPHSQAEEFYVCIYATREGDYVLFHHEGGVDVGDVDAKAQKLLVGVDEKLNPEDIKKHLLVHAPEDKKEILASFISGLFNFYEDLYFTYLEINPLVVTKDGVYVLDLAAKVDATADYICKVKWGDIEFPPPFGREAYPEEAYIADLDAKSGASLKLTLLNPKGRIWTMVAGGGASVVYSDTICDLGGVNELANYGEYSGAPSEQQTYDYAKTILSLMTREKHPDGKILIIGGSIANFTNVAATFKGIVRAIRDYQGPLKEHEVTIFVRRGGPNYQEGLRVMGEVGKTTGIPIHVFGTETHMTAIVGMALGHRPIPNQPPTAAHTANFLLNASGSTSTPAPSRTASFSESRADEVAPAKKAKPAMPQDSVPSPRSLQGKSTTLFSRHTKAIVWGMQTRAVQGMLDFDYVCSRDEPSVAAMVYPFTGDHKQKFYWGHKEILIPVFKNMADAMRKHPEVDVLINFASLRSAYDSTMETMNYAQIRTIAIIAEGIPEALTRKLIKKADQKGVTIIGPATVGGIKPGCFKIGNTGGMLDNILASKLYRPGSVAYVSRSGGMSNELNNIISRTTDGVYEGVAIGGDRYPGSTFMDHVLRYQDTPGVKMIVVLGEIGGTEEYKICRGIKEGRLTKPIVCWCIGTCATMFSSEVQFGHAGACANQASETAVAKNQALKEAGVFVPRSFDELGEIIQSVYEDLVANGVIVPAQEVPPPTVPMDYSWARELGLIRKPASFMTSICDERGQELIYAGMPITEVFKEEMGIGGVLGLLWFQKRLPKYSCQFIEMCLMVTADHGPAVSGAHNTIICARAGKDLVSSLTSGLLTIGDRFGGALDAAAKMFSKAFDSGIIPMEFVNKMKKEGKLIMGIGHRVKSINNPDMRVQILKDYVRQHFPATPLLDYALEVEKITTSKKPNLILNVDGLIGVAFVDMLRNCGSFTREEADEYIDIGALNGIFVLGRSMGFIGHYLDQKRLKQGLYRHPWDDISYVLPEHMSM
Assay: ADP-Glo Assay: Materials and Instruments Used in the ADP-Glo AssayVendor Cat No.Materials ACL Sino Biological 11769-H07BCoANa2 Sigma C3144Potassium Citrate Sigma 89306ATP Promega V915BADP-GloTM Kinase Assay Promega V9102kitHEPES Life Technologies 15630080MgCl2 Sigma M1028Brij 35 detergent Merck 203728DTT Sigma 646563DMSO MP 196055Optiplate-384, White 384- Perkin Elmer 6007290well384 dilution …

O=C(c1cc(Cl)c(O)c(S(=O)(=O)Nc2cc(-c3cc4ccccc4s3)c(F)cc2OC(F)(F)F)c1)N1CCC1
IC50: < 50 nM
